Results on 21 compounds are retold here after patent US10316017B2, “COT modulators and methods of use thereof” (Gilead Sciences, Inc., priority 2015, dated 2019).

Like-named read-outs stand apart in the source and are kept apart here.

In test [1] the target is T1, human Cot catalytic domain (30-397 amino acids) (Homo sapiens, UniProt P41279).
T1 construct: Purified recombinant human Cot catalytic domain (30-397 amino acids) was purchased from Cama Biosciences; purchased Cama Biosciences (so in the source)
T1 sequence (P41279 30-397): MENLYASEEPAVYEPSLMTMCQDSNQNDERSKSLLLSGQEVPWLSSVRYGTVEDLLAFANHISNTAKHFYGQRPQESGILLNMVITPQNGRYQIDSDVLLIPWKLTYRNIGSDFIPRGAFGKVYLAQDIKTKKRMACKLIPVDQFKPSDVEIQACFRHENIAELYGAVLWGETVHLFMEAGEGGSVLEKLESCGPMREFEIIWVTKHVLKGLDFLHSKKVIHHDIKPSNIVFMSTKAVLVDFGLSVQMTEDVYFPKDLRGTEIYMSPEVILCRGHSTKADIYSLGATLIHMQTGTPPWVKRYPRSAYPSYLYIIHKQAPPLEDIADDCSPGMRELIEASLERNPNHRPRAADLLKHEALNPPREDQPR
The experiment in a line: High Throughput Cot Biochemical Assay (KinEASE TR-FRET). Particulars: read-out: IC50 HTRF. The procedure, abridged: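 TR-FRET (KinEASE) read-out: Eu-labelled phospho-specific antibody binds XL665-tagged STK3 peptide (1 μM) phosphorylated by 5 nM human Cot kinase domain (residues 30-397). Reaction at 400 μM ATP, pH 7.0 MOPS buffer with 10 mM MgOAc, 1 mM DTT and 0.1% DMSO.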

In test [2] the test system is TNFα production in LPS-stimulated human monocytes. The experiment in a line: Cot Monocyte TNFα Cell Based Assay. Particulars: Homo sapiens, Monocyte, read-out: EC50 TNF. The procedure, abridged: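 TNFα release quantified by two-antibody TR-FRET, normalised to unstimulated (0%) and LPS-stimulated (100%) wells. Cells got a 1 h compound exposure at 37° C in 0.5% DMSO before 4 h challenge with 50 pg/ml LPS, at 5,000 cells/well.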

Where [3] appears, read: Cot KinEASE TR-FRET (HTRF) biochemical assay, 400 μM ATP.
Where [4] appears, read: TNFα in LPS-stimulated human monocytes.
Setting [5] is: Cot KinEASE TR-FRET, 400 μM ATP.
Where [6] appears, read: LPS-stimulated human monocytes, TNFα TR-FRET.
The mark [7] stands for this setting: Cot biochemical HTRF (KinEASE TR-FRET) assay.

Regarding `[2H][C@@](Nc1cc(Cl)c2ncc(C#N)c(NCC(C)(C)C)c2c1)(c1cn(CC2(F)COC2)nn1)c1ccccc1Cl` [Example 103, 8-chloro-6-(((2-chlorophenyl) (1-((3-fluorooxetan-3-yl)methyl)-1H-1,2,3-triazol-4-yl)methyl-d)amino)-4-(neopentylamino) quinoline-3-carbonitrile], in test [1] (setting [3]), the IC50 amounted to 50 nM. In addition, the EC50 in test [2] (setting [4]) was determined as 522 nM.
Regarding `CC(C)(C)CNc1c(C#N)cnc2c(Cl)cc(N[C@@H](c3cccc(-c4ccccc4)c3)c3cn(C4CC4)nn3)cc12` [Example 95, (S)-6-(([1,1'-biphenyl]-3-yl(1-cyclopropyl-1H-1,2,3-triazol-4-yl)methyl)amino)-8-chloro-4-(neopentylamino) quinoline-3-carbonitrile], the IC50 in test [1] (setting [3]) amounted to 24 nM. Moreover, the EC50 in test [2] (setting [4]) was above 1000 nM.
On to `CCN1CCC(n2cc([C@H](Nc3cc(Cl)c4ncc(C#N)c(Nc5ccc(F)c(Cl)c5)c4c3)c3ccccc3)nn2)CC1` [Example 918, (R)-8-chloro-4-((3-chloro-4-fluorophenyl)amino)-6-(((1-(1-ethylpiperidin-4-yl)-1H-1,2,3-yl)(phenyl)methyl)amino) quinoline-3-carbonitrile], for which, in test [1] (setting [5]), the IC50 worked out at 194 nM. Further, in test [2] (setting [6]), the concentration giving a half-maximal response (EC50) worked out at 8580 nM.
Take `C[C@@H](n1cc([C@@H](Nc2cc(Cl)c3ncc(C#N)c(Nc4cnc(F)c(F)c4)c3c2)c2ccc(F)cc2)nn1)C(F)(F)F` [Example 406, 8-chloro-4-((5,6-difluoropyridin-3-yl)amino)-6-(((S)-(4-fluorophenyl)(1-((R)-1,1,1-trifluoropropan-2-yl)-1H-1,2,3-triazol-4-yl)methyl)amino)quinoline-3-carbonitrile]: the IC50 in test [1] (setting [7]) stood at 212 nM. The EC50 in test [2] (setting [4]) is 4430 nM.
Take `CC(C)(C)CNc1c(C#N)cnc2c(C#N)cc(N[C@H](c3cn(CC(N)=O)nn3)c3ccccc3Cl)cc12` [Example 963, (S)-2-(4-((2-chlorophenyl) ((3,8-dicyano-4-(neopentylamino)quinolin-6-yl)amino)methyl)-1H-1,2,3-triazol-1-yl)acetamide]: the IC50 in test [1] (setting [5]) is 3 nM. The EC50 in test [2] (setting [6]) came out at 777 nM.
In the case of `CC(C)(C)N1CCC(n2cc([C@@H](Nc3cc(Cl)c4ncc(C#N)c(Nc5ccc(C(F)(F)F)nc5)c4c3)c3ccc(Cl)cc3)nn2)CC1` [Example 750, (S)-6-(((1-(1-(tert-butyl)piperidin-4-yl)-1H-1,2,3-triazol-4-yl)(4-chlorophenyl)methyl)amino)-8-chloro-4-((6-(trifluoromethyl)pyridin-3-yl)amino)quinoline-3-carbonitrile], the IC50 in test [1] (setting [7]) amounted to 1890 nM. The EC50 in test [2] (setting [4]) is 4720 nM.
As for `CC(C)(C)N1CCC(n2cc([C@@H](Nc3cc(Cl)c4ncc(C#N)c(NCCc5ccccc5)c4c3)c3ccc(Cl)cc3)nn2)CC1` [Example 703, (S)-6-(((1-(1-(tert-butyl)piperidin-4-yl)-1H-1,2,3-triazol-4-yl)(4-chlorophenyl)methyl)amino)-8-chloro-4-(phenethylamino)quinoline-3-carbonitrile], in test [1] (setting [7]), the IC50 was 95 nM. In test [2] (setting [4]), the EC50 turned out to be 12000 nM.
Take `Cc1c([C@H](Nc2cc(Cl)c3ncc(C#N)c(NCC(C)(C)C)c3c2)c2cn(C3(C(F)F)CC3)nn2)cccc1-n1cncn1` [Example 1049, (S)-8-chloro-6-(((1-(1-(difluoromethyl)cyclopropyl)-1H-1,2,3-triazol-4-yl)(2-methyl-3-(1H-1,2,4-triazol-1-yl)phenyl)methyl)amino)-4-(neopentylamino)quinoline-3-carbonitrile]: in test [1] (setting [5]), the IC50 is 2 nM. Moreover, the EC50 in test [2] (setting [6]) was found to be 35 nM.
On to `N#Cc1cnc2c(Cl)cc(N[C@H](c3cn(C4COC4)nn3)c3ccccc3C(F)(F)F)cc2c1Nc1cnc(F)c(F)c1` [Example 501, (S)-8-chloro-4-((5,6-difluoropyridin-3-yl)amino)-6-(((1-(oxetan-3-yl)-1H-1,2,3-triazol-4-yl)(2-(trifluoromethyl)phenyl)methyl)amino)quinoline-3-carbonitrile], for which, in test [1] (setting [7]), the IC50 stood at 94 nM. Also, the EC50 in test [2] (setting [4]) is 2140 nM.
With `N#Cc1cnc2c(Cl)cc(N[C@@H](c3ccc(F)cc3)c3cn(CC(F)(F)F)nn3)cc2c1Nc1cnc(F)c(F)c1` [Example 512, (S)-8-chloro-4-((5,6-difluoropyridin-3-yl)amino)-6-(((4-fluorophenyl)(1-(2,2,2-trifluoroethyl)-1H-1,2,3-triazol-4-yl)methyl)amino)quinoline-3-carbonitrile], in test [1] (setting [7]), the IC50 came out at 85 nM. For the same compound, the 50% effective concentration (EC50) in test [2] (setting [4]) was determined as 1100 nM.
As for `CC(=O)Nc1cccc([C@H](Nc2cc(Br)c3ncc(C#N)c(NCC(C)(C)C)c3c2)c2cn(C3CC3)nn2)c1` [Example 79, (S)-N-(3-(((8-bromo-3-cyano-4-(neopentylamino)quinolin-6-yl)amino) (1-cyclopropyl-1H-1,2,3-triazol-4-yl)methyl)phenyl)acetamide], in test [1] (setting [3]), the IC50 turned out to be 8 nM. In test [2] (setting [4]), the EC50 was 278 nM.
For `[2H][C@](Nc1cc(Cl)c2ncc(C#N)c(NCC(C)(C)C)c2c1)(c1cn(C2(CO)COC2)nn1)c1ccccc1Cl` [Example 965, 8-chloro-6-(((2-chlorophenyl) (1-(3-(hydroxymethyl)oxetan-3-yl)-1H-1,2,3-triazol-4-yl)methyl-d)amino)-4-(neopentylamino) quinoline-3-carbonitrile], the IC50 in test [1] (setting [5]) is 14 nM. Further, the EC50 in test [2] (setting [6]) amounted to 286 nM.
`[2H][C@](Nc1cc(Br)c2ncc(C#N)c(N[C@H](CCC#N)c3ccccc3)c2c1)(c1ccc(F)cc1)c1cn(C2CC2)nn1` [Example 937, 8-bromo-4-(((R)-3-cyano-1-phenylpropyl)amino)-6-(((S)-(1-cyclopropyl-1H-1,2,3-triazol-4-yl)(4-fluorophenyl)methyl-d)amino)quinoline-3-carbonitrile]: the IC50 in test [1] (setting [5]) turned out to be 3 nM. Further, in test [2] (setting [6]), the EC50 stood at 35 nM.
Turning to `N#Cc1cnc2c(Cl)cc(N[C@@H](c3ccc(F)cc3)c3cn(C4CC4)nn3)cc2c1NCC12CC(C1)C2` [Example 927, (S)-4-((bicyclo[1.1.1]pentan-1-ylmethyl)amino)-8-chloro-6-(((1-cyclopropyl-1H-1,2,3-triazol-4-fluorophenyl)methyl)amino) quinoline-3-carbonitrile], the IC50 in test [1] (setting [5]) was found to be 34 nM. For the same compound, the EC50 in test [2] (setting [6]) worked out at 576 nM.
Turning to `[2H][C@@](Nc1cc(Cl)c2ncc(C#N)c(N[C@H](CC)c3ccccc3)c2c1)(c1cn(C2CC2)nn1)c1cccc(C#N)c1Cl` [Example 292, 8-chloro-6-(((S)-(2-chloro-3-cyanophenyl)(1-cyclopropyl-1H-1,2,3-triazol-4-yl)methyl-d)amino)-4-(((R)-1-phenylpropyl)amino)quinoline-3-carbonitrile], the IC50 in test [1] (setting [3]) was found to be 13 nM. Besides, the EC50 in test [2] (setting [4]) came to 237 nM.
For `N#Cc1cnc2c(Cl)cc(N[C@@H](c3ccc(Cl)cc3)c3c[nH]nn3)cc2c1Nc1ccc(F)c(F)c1F` [Example 631, (S)-8-chloro-6-(((4-chlorophenyl)(1H-1,2,3-triazol-4-yl)methyl)amino)-4-((2,3,4-trifluorophenyl)amino)quinoline-3-carbonitrile], the IC50 in test [1] (setting [7]) was determined as 166 nM. Moreover, the EC50 in test [2] (setting [4]) amounted to 1080 nM.
Consider `[2H][C@](Nc1cc(Cl)c2ncc(C#N)c(NCC3(C)CCC3)c2c1)(c1cccc(C#N)c1)c1cn(C2CC2)nn1` [Example 276, (S)-8-chloro-6-(((3-cyanophenyl)(1-cyclopropyl-1H-1,2,3-triazol-4-yl)methyl-d)amino)-4-(((1-methylcyclobutyl)methyl)amino) quinoline-3-carbonitrile], for which the IC50 in test [1] (setting [3]) came to 3 nM. Further, in test [2] (setting [4]), the 50% effective concentration (EC50) amounted to 166 nM.
For the compound `Cn1cnc(C(Nc2cc(Cl)c3ncc(C#N)c(Nc4ccc(F)c(Cl)c4)c3c2)c2ccc(Cl)cc2)c1` (stereo not drawn) [Example 894, 8-chloro-4-((3-chloro-4-fluorophenyl)amino)-6-(((4-chlorophenyl)(1-methyl-1H-imidazol-4-yl)methyl)amino)quinoline-3-carbonitrile], the IC50 in test [1] (setting [7]) worked out at 168 nM. In addition, the EC50 in test [2] (setting [4]) was 1750 nM.
Turning to `Cc1c(C#N)cccc1[C@H](Nc1cc(C#N)c2ncc(C#N)c(NCC(C)(C)C)c2c1)c1cn(C2(C)CC2)nn1` [Example 1148, (S)-6-(((3-cyano-2-methylphenyl)(1-(1-methylcyclopropyl)-1H-1,2,3-triazol-4-yl)methyl)amino)-4-(neopentylamino)quinoline-3,8-dicarbonitrile], in test [1] (setting [5]), the IC50 is 2 nM. Also, the EC50 in test [2] (setting [6]) was found to be 20 nM.
`CC(C)(C)CNc1c(C#N)cnc2c(Cl)cc(N[C@@H](c3cccc(C4(C#N)CC4)c3)c3cn(C45CC(C4)C5)nn3)cc12` [Example 1094, (S)-6-(((1-(bicyclo[1.1.1]pentan-1-yl)-1H-1,2,3-triazol-4-yl)(3-(1-cyanocyclopropyl)phenyl)methyl)amino)-8-chloro-4-(neopentylamino)quinoline-3-carbonitrile]: in test [1] (setting [5]), the IC50 is 10 nM. Further, in test [2] (setting [6]), the EC50 is 407 nM.
Turning to `N#Cc1cnc2c(Cl)cc(N[C@@H](c3ccccc3)c3cn(CCCN4CCCC4)nn3)cc2c1Nc1ccc(F)c(C#N)c1F` [Example 469, (S)-8-chloro-4-((3-cyano-2,4-difluorophenyl)amino)-6-((phenyl(1-(3-(pyrrolidin-1-yl)propyl)-1H-1,2,3-triazol-4-yl)methyl)amino)quinoline-3-carbonitrile], in test [1] (setting [7]), the IC50 is 14 nM. Besides, the EC50 in test [2] (setting [4]) was 315 nM.
